Laboratory results published in US7173063B1, “Topoisomerase poisons for the treatment of proliferative disorders” (Fred Hutchinson Cancer Research Center, priority 2000, dated 2007).

Tests used:
ACHN, SW620, A549, MDA-N = experiment: Thymidine incorporation toxicity assay in four cancer derived cell lines; assay type: cell-based, human; conditions: for correlation between MDR1 activity and toxicity/sensitivity: A549, SW620, ACHN (MDR1 10, 31, 120); for cell line against which most effective: four tumor derived cell lines
Protocol: (§1) Cell lines were grown at 37° C. in an atmosphere of 5% CO2. The chicken pre-B cell line DT40 and its derivatives (Bezzubova, et al., Cell 89: 185–93 (1997), Takata, et al., EMBO Journal 17: 5497–508 (1998), Yamaguchi-Iwai, et al., Molecular & Cellular Biology 18: 6430–5 (1998)) were grown in RPMI containing 10% fetal calf serum and 1% chicken serum. The remaining cell lines were grown in DMEM with 10% fetal calf serum.
(§2) Toxicity assays in mammalian cell lines were performed using tritiated thymidine incorporation as a measure of the number of viable cells. […] Drug toxicity was measured as follows:
(§3) Cells were plated at a density of 500 cells per well in opaque 96 well plates (Packard) in a volume of 135 μL per well of the appropriate media. The plates were incubated overnight to allow cell adherence. Seven two-fold dilutions of the test compounds were added in a volume of 15 μL per well in triplicate, and 15 μL of media containing an appropriate concentration of DMSO was added to control wells in triplicate. Plates were incubated at 37° C. for 96 hours. The media was then replaced with 100 μL per well of the appropriate media containing 2 μCi/mL of (methyl-^3H) thymidine (Amersham Pharmacia Biotech), then plates were incubated for a further 24 hours at 37° C. Cells were washed three times with PBS, then 100 μL per well of scintillant was added (Microscint 20, Packard), and sealed plates were counted in a microplate reader (Packard Topcount). For suspension chicken cells, (methyl-^3H) thymidine was added directly to the drug-containing media at a concentration of 20 μCi/mL (comprising one tenth of the media volume) and incubated overnight. The suspension cells were transferred to a UniFilter GF/C plate (Packard) and washed with PBS in a plate washer (Packard). After drying, 25 μL per well of scintillant (Microscint 20, Packard) was added, and sealed plates were counted. Toxicity is expressed as a percentage of the control counts. For experiments involving shorter exposures to compounds, cells were grown in the presence of compound for the appropriate time, then the media was replaced with fresh drug-free media, and incubation continued for the remainder of 96 hours, followed by the normal tritiated thymidine uptake and washing protocol.
A common mechanism of tumor resistance to chemotherapeutic agents is overexpression of the drug efflux protein MDR1 (Kane, et al., Advances in Drug Research 28: 182–252 (1996), Nooter, et al., Leukemia Research 18: 233–43 (1994)). MDR1 is overexpressed in many tumor derived cell lines (for instance see http://dtp.nci.nih.gov/), and its overexpression inversely correlates with sensitivity to certain compounds (Kane, et al., Advances in Drug Research 28: 182–252 (1996)).

[1] = system: DSB repair defective rad50 and rad52 strains of Saccharomyces cerevisiae; assay type: cell-based; conditions: relative growth (OD660) vs solvent control
Description: The strains are derived from the A364a genetic background, with the exception of BY4705, which is derived from the S288C background. Gene disruptions were generated by PCR fragment directed replacement (Baudin, et al., Nucleic Acids Research 21: 3329–30 (1993), Guldener, et al., Nucleic Acids Research 24: 2519–24 (1996)). Yeast overexpressing topoisomerase II was constructed by a PCR fragment directed promoter replacement of the topoisomerase II promoter with the yeast GPD promoter flanked upstream by the URA3 marker. All strains (except BY4705) bear the pleitropic drug sensitizing mutations erg6, pdr1, and pdr3 (Balzi, et al., Journal of Bioenergetics & Biomembranes 27: 71–6 (1995), Delaveau, et al, Molecular & General Genetics 244: 501–11 (1994), Gaber, et al., Molecular & Cellular Biology 9: 3447–56 (1989), Saunders, et al., Canadian Journal of Genetics & Cytology, 24: 493–503 (1982). Subik, et al, Current Genetics 10: 665–70 (1986)). The haploid yeast strain BY4705 (Brachmann, et al., Yeast 14: 115–32 (1998)) was used in the experiments described in FIG. 5. Plasmids expressing yeast or human topoisomerase I genes under the GAL promoter (Knab, et al., Journal of Biological Chemistry 268: 22322–30 (1993). Knab, et al., Journal of Biological Chemistry 270: 6141–8 (1995)) were transformed into BY4705 using standard procedures.
Yeast toxicity assays were performed essentially as follows: Exponentially growing cultures of the appropriate strains were diluted in synthetic complete media to a concentration of 7.4×10^4 cells/mL, and aliquots (135 μL) were transferred to each well of clear flat-bottomed 96 well plates. Compounds were added in duplicate or triplicate as 15 μL of the appropriate dilution in 5% DMSO. A 15 μL portion of 5% DMSO was added to control wells. […] Cell growth (OD660) in treated wells was plotted as a percentage of the growth in at least four averaged solvent control wells for the same strain. Camptothecin sodium salt (camptothecin Na) was the agent used in all yeast assays as standard.

purified Topo I = biological target: T1, purified Topo I (Homo sapiens, UniProt P11387); experiment: In vitro assay for DNA strand-break formation in the presence of purified Topo I; assay type: biochemical
T1 sequence (P11387 1-765): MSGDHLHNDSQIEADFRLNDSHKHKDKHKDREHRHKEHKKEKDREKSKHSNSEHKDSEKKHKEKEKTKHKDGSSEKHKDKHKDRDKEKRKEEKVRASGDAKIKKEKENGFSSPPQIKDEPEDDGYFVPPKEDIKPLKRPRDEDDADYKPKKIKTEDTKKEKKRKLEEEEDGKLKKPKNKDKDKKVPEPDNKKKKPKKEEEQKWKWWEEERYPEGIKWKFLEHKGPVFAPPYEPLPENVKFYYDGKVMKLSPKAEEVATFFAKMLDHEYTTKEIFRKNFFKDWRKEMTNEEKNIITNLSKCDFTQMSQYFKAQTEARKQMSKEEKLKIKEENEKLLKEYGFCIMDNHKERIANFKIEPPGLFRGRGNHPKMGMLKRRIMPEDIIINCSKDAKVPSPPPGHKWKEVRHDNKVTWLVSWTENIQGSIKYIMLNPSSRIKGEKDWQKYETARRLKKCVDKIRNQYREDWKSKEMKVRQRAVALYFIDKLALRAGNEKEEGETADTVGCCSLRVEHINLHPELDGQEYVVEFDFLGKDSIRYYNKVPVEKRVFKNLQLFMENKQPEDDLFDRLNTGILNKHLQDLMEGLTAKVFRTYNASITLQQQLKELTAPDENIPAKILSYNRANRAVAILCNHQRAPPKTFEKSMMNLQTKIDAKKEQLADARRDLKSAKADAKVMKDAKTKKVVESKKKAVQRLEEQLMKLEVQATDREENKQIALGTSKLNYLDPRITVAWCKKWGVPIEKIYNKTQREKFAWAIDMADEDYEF

[2] = system: chicken pre-B cell line DT40; experiment: Thymidine incorporation toxicity assay in isogenic DT40 cells with or without KU70, RAD52, RAD54; assay type: cell-based; conditions: for effect of loss of homologous recombination (RAD52 or RAD54) on toxicity: DT40 with or without RAD52 or RAD54
Protocol: as §1, §2, §3
In the case of Topo II poisons, the drug/enzyme complex directly produces a DSB, which could occur in all phases of the cell cycle and can apparently be repaired by either DSB repair pathway. Topo I poisons, however, create a single strand break that is converted to a DSB by passage of a replication fork during ongoing DNA synthesis (D'Arpa, et al., Cancer Research 50: 6919–24 (1990), Hsiang, et al., Cancer Research 49: 5077–82 (1989), Holm, et al., Cancer Research 49: 6365–8 (1989)). It has been proposed that DSB's created in this context can only be repaired by homologous recombination, additionally requiring proteins involved in sister chromatid cohesion (Castano, et al., Genes & Development 10: 2564–76 (1996), Castano, et al., Nucleic Acids Research 24: 2404–10 (1996), Walowsky, et al., Journal of Biological Chemistry 274: 7302–8 (1999)).

Rat1a fibroblasts [3] = experiment: Effect of exposure time on toxicity in Rat1a fibroblasts; assay type: cell-based, rat; conditions: for toxicity with a two hour exposure: additional experiments; for toxicity of four hour versus six hour exposure: total incubation 96 hours
Protocol: as §3

Rat1a fibroblasts [4] = experiment: Effect of co-treatment with hydroxyurea (HU) on toxicity in Rat1a fibroblasts; assay type: cell-based, rat; conditions: six-hour exposure; 0, 0.25, 0.5 or 1 mM HU
Protocol: FIG. 6 illustrates the effect of exposure time and hydroxyurea on the toxicity of compound Ia and compound IIa. […] Rat1a fibroblasts were exposed to compound during growth for either four or six hours, the media was changed, then cells were grown for an appropriate period such that total incubation time was 96 hours, and processed as described in the Example below. […] The bar graph insets for each graph show growth inhibition by HU alone.
as §3
A six-hour exposure was used to test whether the toxicity of the same set of compounds is dependent on ongoing DNA synthesis. […] Thus, in contrast to camptothecin and topotecan, compounds Ia and IIa show no marked time dependency for toxicity (FIG. 6A) and are not inhibited by HU (FIG. 6B), indicating critical mechanistic differences between these compounds and camptothecin.

Compound	correlation between MDR1 activity and toxicity/sensitivity (ACHN, SW620, A549, MDA-N)	cell line against which most effective (ACHN, SW620, A549, MDA-N)	effect of loss of homologous recombination (RAD52 or RAD54) on toxicity [2]	toxicity with a two hour exposure (Rat1a fibroblasts [3])	toxicity of four hour versus six hour exposure (Rat1a fibroblasts [3])	also measured
CC(=O)O[C@H]1C(=O)[C@@]2(C)[C@H]([C@H](OC(=O)c3ccccc3)[C@]3(O)C[C@H](OC(=O)[C@H](O)[C@@H](NC(=O)c4ccccc4)c4ccccc4)C(C)=C1C3(C)C)[C@]1(OC(C)=O)CO[C@@H]1C[C@@H]2O [taxol, reference compound]	clear inverse correlation	–	–	–	–	–
O=C1c2c(O)ccc(O)c2C(=O)c2c(NCCNCCO)ccc(NCCNCCO)c21 [mitoxantrone]	–	–	–	–	–	profile of selective toxicity: toxic to rad50 and rad52 strains, not toxic in rad14 or rad18 strains [1]: Agents with this profile include
CC[C@@]1(O)C(=O)OCc2c1cc1n(c2=O)Cc2cc3ccccc3nc2-1 [camptothecin, Camptothecin, reference compound]	No correlation	most effective against the colon carcinoma derived cell line SW620	minor effect	no toxicity	–	camptothecin concentration required in the in vitro assay relative to cell-based assays (purified Topo I): 100 fold; strand-break induction (purified Topo I): does induce strand-break formation; effect of loss of KU70 on toxicity ([2]; DT40 with or without KU70): unaffected by KU70 expression; effectiveness of 96 hour exposure relative to four hour exposure (Rat1a fibroblasts [3]): ≤ 100 fold
CC[C@@]1(O)C(=O)OCc2c1cc1n(c2=O)Cc2cc3c(CN(C)C)c(O)ccc3nc2-1 [topotecan, Topotecan, reference compound]	No correlation	most effective against the colon carcinoma derived cell line SW620	–	–	six-hour exposure being much more effective than a four-hour exposure	inhibition of toxicity by co-treatment with HU (Rat1a fibroblasts [4]): suppresses the toxicity
COc1cc([C@@H]2c3cc4c(cc3[C@@H](O[C@@H]3O[C@@H]5CO[C@@H](C)O[C@H]5[C@H](O)[C@H]3O)[C@H]3COC(=O)[C@H]23)OCO4)cc(OC)c1O [etoposide, reference compound]	–	–	no effect	nearly full toxicity	little difference in toxicity	–
